Laboratory results: publication PMC9030254, “Target Hopping from Protein Kinases to PXR: Identification of Small-Molecule Protein Kinase Inhibitors as Selective Modulators of Pregnane X Receptor from TüKIC Library” (Cells, 2022)

Experiments:
Assay in all cases: Kinase profiling
Type in all cases: biochemical
CDK9/CycT1 = biological target: T1, CDK9/CycT1 (Homo sapiens, UniProt P50750)
T1 construct: purchased ProQinase (Freiburg, Germany)
Description: (§1) The analysis was performed by ProQinase (Freiburg, Germany).

CK1gamma2 = biological target: T2, CK1gamma2 (Homo sapiens, UniProt P78368)
T2 construct: purchased ProQinase (Freiburg, Germany)
Description: as §1

CK1gamma3 = biological target: T3, CK1gamma3 (Homo sapiens, UniProt Q9Y6M4)
T3 construct: purchased ProQinase (Freiburg, Germany)
Description: as §1

FER = biological target: T4, FER (Homo sapiens, UniProt P16591)
T4 construct: purchased ProQinase (Freiburg, Germany)
Description: as §1

GRK7 = biological target: T5, GRK7 (Homo sapiens, UniProt Q8WTQ7)
T5 construct: purchased ProQinase (Freiburg, Germany)
T5 sequence (Q8WTQ7 1-553): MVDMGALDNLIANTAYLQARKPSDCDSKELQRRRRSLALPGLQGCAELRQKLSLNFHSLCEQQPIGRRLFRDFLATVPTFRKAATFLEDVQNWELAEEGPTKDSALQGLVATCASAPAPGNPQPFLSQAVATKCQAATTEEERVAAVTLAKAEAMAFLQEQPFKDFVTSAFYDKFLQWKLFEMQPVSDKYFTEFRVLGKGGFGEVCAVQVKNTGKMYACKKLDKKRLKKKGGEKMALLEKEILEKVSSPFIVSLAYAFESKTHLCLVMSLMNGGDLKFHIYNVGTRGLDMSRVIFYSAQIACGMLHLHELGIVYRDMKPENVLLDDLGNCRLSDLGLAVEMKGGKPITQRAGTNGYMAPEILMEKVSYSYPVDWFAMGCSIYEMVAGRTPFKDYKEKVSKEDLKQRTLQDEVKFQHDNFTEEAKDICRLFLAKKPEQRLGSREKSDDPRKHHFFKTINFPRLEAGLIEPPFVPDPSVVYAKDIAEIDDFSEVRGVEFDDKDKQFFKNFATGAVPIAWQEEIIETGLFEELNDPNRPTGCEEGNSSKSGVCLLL
Description: as §1

GSK3alpha = biological target: T6, GSK3alpha (Homo sapiens, UniProt P49840)
T6 construct: purchased ProQinase (Freiburg, Germany)
Description: as §1

MAPKAPK5 = biological target: T7, MAPKAPK5 (Homo sapiens, UniProt Q8IW41)
T7 construct: purchased ProQinase (Freiburg, Germany)
T7 sequence (Q8IW41 1-473): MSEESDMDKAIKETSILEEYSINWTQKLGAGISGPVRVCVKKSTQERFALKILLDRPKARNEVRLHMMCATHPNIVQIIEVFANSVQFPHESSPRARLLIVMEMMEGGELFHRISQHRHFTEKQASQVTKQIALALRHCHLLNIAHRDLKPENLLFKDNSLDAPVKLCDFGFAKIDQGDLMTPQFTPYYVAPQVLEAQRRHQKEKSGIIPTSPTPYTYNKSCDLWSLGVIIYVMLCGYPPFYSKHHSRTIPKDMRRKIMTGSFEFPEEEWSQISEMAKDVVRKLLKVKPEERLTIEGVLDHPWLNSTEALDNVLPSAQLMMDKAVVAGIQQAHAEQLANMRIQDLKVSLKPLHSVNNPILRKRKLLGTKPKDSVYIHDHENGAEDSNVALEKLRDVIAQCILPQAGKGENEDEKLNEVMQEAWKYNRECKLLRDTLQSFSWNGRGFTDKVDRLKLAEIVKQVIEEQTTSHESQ
Description: as §1

MELK = biological target: T8, MELK (Homo sapiens, UniProt Q14680)
T8 construct: purchased ProQinase (Freiburg, Germany)
Description: as §1

SRPK1 = biological target: T9, SRPK1 (Homo sapiens, UniProt Q96SB4)
T9 construct: purchased ProQinase (Freiburg, Germany)
Description: as §1

STK25 = biological target: T10, STK25 (Homo sapiens, UniProt O00506)
T10 construct: purchased ProQinase (Freiburg, Germany)
Description: as §1

p38gamma = biological target: T11, p38gamma (Homo sapiens, UniProt P53778)
T11 construct: purchased ProQinase (Freiburg, Germany)
T11 sequence (P53778 1-367): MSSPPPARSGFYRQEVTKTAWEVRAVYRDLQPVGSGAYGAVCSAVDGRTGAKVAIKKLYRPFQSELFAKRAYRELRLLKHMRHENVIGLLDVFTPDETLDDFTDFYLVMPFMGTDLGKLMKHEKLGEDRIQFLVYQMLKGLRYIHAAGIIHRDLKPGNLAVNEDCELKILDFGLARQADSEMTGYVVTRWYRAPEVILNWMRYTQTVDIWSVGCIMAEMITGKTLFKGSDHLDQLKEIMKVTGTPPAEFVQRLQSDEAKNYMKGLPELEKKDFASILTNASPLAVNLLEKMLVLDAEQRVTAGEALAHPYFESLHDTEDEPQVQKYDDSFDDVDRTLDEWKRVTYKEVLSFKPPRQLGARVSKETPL
Description: as §1

T6 sequence (P49840 whole entry): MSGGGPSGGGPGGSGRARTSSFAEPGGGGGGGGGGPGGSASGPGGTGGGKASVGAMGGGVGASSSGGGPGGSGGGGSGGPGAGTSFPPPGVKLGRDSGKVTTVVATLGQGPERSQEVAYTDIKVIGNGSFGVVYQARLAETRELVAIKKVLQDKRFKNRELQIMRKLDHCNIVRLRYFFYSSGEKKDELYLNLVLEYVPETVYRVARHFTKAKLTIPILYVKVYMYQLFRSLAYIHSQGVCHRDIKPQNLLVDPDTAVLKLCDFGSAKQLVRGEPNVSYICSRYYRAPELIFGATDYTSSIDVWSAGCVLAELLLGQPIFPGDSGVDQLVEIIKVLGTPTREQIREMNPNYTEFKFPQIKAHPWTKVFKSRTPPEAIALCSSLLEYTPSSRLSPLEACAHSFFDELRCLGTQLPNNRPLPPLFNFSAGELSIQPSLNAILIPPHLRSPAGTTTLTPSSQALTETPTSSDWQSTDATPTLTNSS
T10 sequence (O00506 whole entry): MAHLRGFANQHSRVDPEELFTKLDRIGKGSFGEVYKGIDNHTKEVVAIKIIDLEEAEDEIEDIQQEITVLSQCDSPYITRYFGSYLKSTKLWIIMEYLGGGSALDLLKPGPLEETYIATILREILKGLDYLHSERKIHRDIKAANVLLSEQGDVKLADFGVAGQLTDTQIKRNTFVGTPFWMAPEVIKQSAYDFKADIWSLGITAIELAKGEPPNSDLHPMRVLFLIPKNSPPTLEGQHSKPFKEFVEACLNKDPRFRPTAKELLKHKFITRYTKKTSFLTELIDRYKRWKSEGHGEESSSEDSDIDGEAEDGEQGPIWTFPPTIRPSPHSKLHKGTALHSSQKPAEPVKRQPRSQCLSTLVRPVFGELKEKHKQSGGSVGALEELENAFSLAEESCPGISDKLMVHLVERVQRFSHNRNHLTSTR
T4 sequence (P16591 whole entry): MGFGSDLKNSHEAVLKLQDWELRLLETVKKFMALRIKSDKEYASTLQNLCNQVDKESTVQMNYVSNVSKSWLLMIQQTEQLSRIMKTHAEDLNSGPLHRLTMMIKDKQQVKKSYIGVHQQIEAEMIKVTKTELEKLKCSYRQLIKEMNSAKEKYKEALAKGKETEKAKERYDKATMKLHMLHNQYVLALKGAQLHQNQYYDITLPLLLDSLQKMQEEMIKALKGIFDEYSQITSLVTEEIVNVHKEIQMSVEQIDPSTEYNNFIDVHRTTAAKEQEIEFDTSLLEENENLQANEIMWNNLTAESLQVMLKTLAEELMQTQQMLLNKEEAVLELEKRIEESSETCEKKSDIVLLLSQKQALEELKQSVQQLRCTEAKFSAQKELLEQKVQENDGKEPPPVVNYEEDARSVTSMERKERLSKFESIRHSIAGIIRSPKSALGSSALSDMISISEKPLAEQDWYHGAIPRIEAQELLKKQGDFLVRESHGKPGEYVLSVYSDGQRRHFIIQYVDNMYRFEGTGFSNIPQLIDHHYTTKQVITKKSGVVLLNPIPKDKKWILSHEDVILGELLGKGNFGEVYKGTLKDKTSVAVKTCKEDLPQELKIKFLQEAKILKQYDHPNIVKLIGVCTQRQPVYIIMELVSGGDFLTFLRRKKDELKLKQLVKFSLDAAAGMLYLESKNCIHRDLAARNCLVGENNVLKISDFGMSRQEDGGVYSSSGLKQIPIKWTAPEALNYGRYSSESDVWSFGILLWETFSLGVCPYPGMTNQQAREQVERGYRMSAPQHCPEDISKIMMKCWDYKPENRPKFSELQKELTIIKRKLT
T2 sequence (P78368 whole entry): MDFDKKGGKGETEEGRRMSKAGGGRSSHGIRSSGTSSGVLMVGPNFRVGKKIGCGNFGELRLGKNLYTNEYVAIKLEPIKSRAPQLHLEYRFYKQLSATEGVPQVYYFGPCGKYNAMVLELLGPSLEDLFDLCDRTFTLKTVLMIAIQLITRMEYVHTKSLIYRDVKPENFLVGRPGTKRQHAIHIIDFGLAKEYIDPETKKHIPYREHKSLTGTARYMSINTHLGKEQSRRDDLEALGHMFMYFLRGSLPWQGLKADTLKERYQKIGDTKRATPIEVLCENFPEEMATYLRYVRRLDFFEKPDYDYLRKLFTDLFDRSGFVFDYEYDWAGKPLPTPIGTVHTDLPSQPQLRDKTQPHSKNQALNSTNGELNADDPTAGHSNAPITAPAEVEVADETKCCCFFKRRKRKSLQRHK
T9 sequence (Q96SB4 whole entry): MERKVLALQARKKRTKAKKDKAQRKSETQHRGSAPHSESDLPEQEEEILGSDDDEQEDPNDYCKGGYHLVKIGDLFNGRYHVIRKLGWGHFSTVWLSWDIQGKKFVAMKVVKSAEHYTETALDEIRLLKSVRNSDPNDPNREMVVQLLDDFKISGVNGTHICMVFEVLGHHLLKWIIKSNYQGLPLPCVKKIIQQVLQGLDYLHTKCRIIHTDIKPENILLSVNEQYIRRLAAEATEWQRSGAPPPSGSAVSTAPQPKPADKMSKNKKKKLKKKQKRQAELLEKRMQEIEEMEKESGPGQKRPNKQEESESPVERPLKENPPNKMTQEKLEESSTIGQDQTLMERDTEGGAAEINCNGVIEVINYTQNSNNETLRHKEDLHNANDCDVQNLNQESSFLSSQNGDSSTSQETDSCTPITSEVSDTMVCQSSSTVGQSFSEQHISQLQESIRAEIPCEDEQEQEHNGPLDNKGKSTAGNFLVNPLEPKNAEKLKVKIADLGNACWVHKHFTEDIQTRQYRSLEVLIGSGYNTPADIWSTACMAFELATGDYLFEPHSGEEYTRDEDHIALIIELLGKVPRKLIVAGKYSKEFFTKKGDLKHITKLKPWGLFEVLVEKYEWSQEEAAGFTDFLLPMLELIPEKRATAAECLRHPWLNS
T1 sequence (P50750 whole entry): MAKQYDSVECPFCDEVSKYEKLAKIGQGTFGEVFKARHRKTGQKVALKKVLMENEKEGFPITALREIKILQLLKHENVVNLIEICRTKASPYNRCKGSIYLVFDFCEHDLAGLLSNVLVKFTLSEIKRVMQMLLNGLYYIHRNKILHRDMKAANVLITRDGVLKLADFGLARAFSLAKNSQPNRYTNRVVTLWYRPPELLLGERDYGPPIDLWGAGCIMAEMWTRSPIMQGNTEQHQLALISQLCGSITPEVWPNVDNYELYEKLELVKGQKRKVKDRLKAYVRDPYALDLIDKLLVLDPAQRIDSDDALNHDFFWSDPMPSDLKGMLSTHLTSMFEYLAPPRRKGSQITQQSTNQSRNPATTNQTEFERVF
T1 sequence (O60563 whole entry partner): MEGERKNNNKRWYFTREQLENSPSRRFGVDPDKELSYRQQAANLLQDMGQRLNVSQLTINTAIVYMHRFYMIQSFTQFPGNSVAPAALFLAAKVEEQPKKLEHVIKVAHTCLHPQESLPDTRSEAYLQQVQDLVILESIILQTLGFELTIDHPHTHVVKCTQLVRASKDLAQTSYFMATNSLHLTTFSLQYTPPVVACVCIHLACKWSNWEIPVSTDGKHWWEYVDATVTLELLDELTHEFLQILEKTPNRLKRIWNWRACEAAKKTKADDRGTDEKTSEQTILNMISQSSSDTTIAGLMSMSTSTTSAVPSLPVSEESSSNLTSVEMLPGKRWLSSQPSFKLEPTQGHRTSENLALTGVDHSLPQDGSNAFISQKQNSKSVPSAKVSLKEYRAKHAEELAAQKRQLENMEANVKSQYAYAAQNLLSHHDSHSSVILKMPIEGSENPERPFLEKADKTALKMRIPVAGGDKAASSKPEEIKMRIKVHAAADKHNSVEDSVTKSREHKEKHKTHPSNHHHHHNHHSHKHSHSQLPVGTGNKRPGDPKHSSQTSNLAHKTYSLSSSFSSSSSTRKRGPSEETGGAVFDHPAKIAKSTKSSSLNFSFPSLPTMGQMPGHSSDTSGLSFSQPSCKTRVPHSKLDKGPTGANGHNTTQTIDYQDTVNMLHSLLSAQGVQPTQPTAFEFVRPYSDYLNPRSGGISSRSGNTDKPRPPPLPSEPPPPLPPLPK
T8 sequence (Q14680 whole entry): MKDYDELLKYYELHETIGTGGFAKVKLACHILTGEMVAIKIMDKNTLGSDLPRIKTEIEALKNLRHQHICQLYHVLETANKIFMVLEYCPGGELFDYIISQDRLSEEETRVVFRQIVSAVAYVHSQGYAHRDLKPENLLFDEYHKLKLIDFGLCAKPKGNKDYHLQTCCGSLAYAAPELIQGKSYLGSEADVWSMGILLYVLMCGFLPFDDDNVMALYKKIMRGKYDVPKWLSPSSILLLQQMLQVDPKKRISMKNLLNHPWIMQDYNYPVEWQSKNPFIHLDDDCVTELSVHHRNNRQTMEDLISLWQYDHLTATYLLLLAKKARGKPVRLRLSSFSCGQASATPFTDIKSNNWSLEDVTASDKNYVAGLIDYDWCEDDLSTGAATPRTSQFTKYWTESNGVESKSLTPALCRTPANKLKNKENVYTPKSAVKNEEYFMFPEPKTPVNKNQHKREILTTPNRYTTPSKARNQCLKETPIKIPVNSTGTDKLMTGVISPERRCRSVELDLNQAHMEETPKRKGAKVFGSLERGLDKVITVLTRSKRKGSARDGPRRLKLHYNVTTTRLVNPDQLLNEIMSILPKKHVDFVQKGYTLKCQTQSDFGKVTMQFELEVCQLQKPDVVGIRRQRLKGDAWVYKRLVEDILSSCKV
T3 sequence (Q9Y6M4 whole entry): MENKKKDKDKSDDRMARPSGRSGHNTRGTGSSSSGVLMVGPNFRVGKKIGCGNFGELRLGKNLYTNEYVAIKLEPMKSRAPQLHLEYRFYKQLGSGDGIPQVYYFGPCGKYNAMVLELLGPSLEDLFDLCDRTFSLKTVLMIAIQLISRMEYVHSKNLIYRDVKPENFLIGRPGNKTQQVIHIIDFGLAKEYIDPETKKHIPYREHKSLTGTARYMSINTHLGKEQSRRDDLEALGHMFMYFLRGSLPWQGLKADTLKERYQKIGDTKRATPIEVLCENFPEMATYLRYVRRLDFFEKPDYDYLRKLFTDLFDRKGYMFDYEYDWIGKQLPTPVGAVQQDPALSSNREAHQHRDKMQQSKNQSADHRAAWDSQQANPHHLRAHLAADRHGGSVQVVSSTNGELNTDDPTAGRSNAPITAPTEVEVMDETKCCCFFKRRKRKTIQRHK

For O=C(Cc1ccccc1)Nc1ccc(F)c(Nc2ccc3c(c2)CCCCC3=O)c1 [Compound 100], which Residual activity (CDK9/CycT1; 1.0E-05 M) is on record?
The Residual activity was 89 % of control.

And the Residual activity (CDK9/CycT1; 1.0E-06 M)?
The Residual activity was 95 % of control.

What about the Residual activity (CK1gamma2; 1.0E-05 M) of the same compound?
The Residual activity was 114 % of control.

And the Residual activity (CK1gamma2; 1.0E-06 M)?
Its Residual activity is 104 % of control.

What about the Residual activity (CK1gamma3; 1.0E-05 M) of the same compound?
The Residual activity was 105 % of control.

What about the Residual activity (CK1gamma3; 1.0E-06 M) of the same compound?
The Residual activity was 101 % of control.

What about the Residual activity (FER; 1.0E-05 M) of the same compound?
Its Residual activity is 94 % of control.

And the Residual activity (FER; 1.0E-06 M)?
The Residual activity was 101 % of control.

What about the Residual activity (GRK7; 1.0E-05 M) of the same compound?
Its Residual activity is 123 % of control.

What about the Residual activity (GRK7; 1.0E-06 M) of the same compound?
The Residual activity was 121 % of control.

And the Residual activity (GSK3alpha; 1.0E-05 M)?
Its Residual activity is 90 % of control.

What about the Residual activity (GSK3alpha; 1.0E-06 M) of the same compound?
The Residual activity was 109 % of control.

And the Residual activity (MAPKAPK5; 1.0E-05 M)?
The Residual activity was 89 % of control.

And the Residual activity (MAPKAPK5; 1.0E-06 M)?
The Residual activity was 127 % of control.

What about the Residual activity (MELK; 1.0E-05 M) of the same compound?
The Residual activity was 90 % of control.

And the Residual activity (MELK; 1.0E-06 M)?
Its Residual activity is 93 % of control.

And the Residual activity (SRPK1; 1.0E-05 M)?
The Residual activity was 71 % of control.

And the Residual activity (SRPK1; 1.0E-06 M)?
Its Residual activity is 94 % of control.

What about the Residual activity (STK25; 1.0E-05 M) of the same compound?
Its Residual activity is 89 % of control.

What about the Residual activity (STK25; 1.0E-06 M) of the same compound?
Its Residual activity is 100 % of control.

What about the Residual activity (p38gamma; 1.0E-05 M) of the same compound?
The Residual activity was 84 % of control.

What about the Residual activity (p38gamma; 1.0E-06 M) of the same compound?
The Residual activity was 93 % of control.

For O=C(Nc1ccc(F)c(Nc2ccc3c(c2)CCCCC3=O)c1)c1cccc(F)c1 [Compound 109], which Residual activity (CDK9/CycT1; 1.0E-05 M) is on record?
The Residual activity was 93 % of control.

What about the Residual activity (CDK9/CycT1; 1.0E-06 M) of the same compound?
Its Residual activity is 92 % of control.

And the Residual activity (CK1gamma2; 1.0E-05 M)?
The Residual activity was 70 % of control.

And the Residual activity (CK1gamma2; 1.0E-06 M)?
Its Residual activity is 84 % of control.

And the inhibition at 10 µM (CK1gamma3; 10 µM, read-out: inhibition of CK1-γ3)?
Its inhibition at 10 µM is no less than 50%.

What about the Residual activity (CK1gamma3; 1.0E-05 M) of the same compound?
The Residual activity was 32 % of control.

What about the Residual activity (CK1gamma3; 1.0E-06 M) of the same compound?
Its Residual activity is 79 % of control.

What about the Residual activity (FER; 1.0E-05 M) of the same compound?
Its Residual activity is 90 % of control.

What about the Residual activity (FER; 1.0E-06 M) of the same compound?
Its Residual activity is 110 % of control.

What about the Residual activity (GRK7; 1.0E-05 M) of the same compound?
Its Residual activity is 116 % of control.

And the Residual activity (GRK7; 1.0E-06 M)?
Its Residual activity is 108 % of control.

What about the Residual activity (GSK3alpha; 1.0E-05 M) of the same compound?
Its Residual activity is 106 % of control.

What about the Residual activity (GSK3alpha; 1.0E-06 M) of the same compound?
Its Residual activity is 112 % of control.

What about the Residual activity (MAPKAPK5; 1.0E-05 M) of the same compound?
Its Residual activity is 97 % of control.

And the Residual activity (MAPKAPK5; 1.0E-06 M)?
Its Residual activity is 101 % of control.

And the Residual activity (MELK; 1.0E-05 M)?
Its Residual activity is 90 % of control.

What about the Residual activity (MELK; 1.0E-06 M) of the same compound?
Its Residual activity is 107 % of control.

What about the Residual activity (SRPK1; 1.0E-05 M) of the same compound?
Its Residual activity is 68 % of control.

What about the Residual activity (SRPK1; 1.0E-06 M) of the same compound?
The Residual activity was 96 % of control.

What about the Residual activity (STK25; 1.0E-05 M) of the same compound?
The Residual activity was 91 % of control.

And the Residual activity (STK25; 1.0E-06 M)?
Its Residual activity is 90 % of control.

What about the Residual activity (p38gamma; 1.0E-05 M) of the same compound?
The Residual activity was 52 % of control.

And the Residual activity (p38gamma; 1.0E-06 M)?
Its Residual activity is 88 % of control.
